Results from publication PMC6147133, “The Toxoplasma gondii Active Serine Hydrolase 4 Regulates Parasite Division and Intravacuolar Parasite Architecture” (mSphere, 2018).

Target: T1, rASH4 (ASH4) (Toxoplasma gondii, UniProt A0A125YZ56)
T1 construct: full-length ORF from RH cDNA, N-terminal 6xHis tag (pET-28A, pIF22), E. coli BL21-CodonPlus(DE3)-RIL; active-site S124, G2 myristoylation site
T1 sequence (A0A125YZ56 1-260): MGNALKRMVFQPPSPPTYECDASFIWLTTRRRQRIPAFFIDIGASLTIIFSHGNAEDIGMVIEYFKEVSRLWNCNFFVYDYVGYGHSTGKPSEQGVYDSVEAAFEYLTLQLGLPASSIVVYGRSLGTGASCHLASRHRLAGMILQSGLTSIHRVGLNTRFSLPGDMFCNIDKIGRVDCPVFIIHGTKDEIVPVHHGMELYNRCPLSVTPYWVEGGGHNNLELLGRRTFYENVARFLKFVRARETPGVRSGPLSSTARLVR
Assay: fluorogenic hydrolysis assay
Format: biochemical
Settings: 10 uM substrate, 150 nM enzyme

CC(=O)Oc1ccc2c(C)cc(=O)oc2c1 [4MU-acetate, 4-methyl-2-oxo-2H-chromen-7-yl acetate]
fluorogenic hydrolysis assay: with the two-carbon acetyl ester having the highest rate of hydrolysis
